Measured values taken from US6737383B1, “Herbicidal oxadiazolidines” (priority 1999, dated 2004).

Key:
bamyardgrass = experiment: Test B flood test barnyardgrass; assay type: in vivo, Echinochloa crus-galli
How it was run: (§1)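 Plants were grown to the 2-leaf stage before treatment with test chemical, then held in a greenhouse for twelve to sixteen days. Injury was visually rated against untreated controls on a 0–10 scale, where 0 is no effect and 10 is complete control.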

wheat = experiment: Test B pre/postemergence wheat; assay type: in vivo, Triticum aestivum
How it was run: (§2)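 Test chemicals in a non-phytotoxic solvent mixture with surfactant were sprayed preemergence onto planted seeds and postemergence onto plants 2 to 18 cm tall (1- to 4-leaf stage). After twelve to sixteen days in a greenhouse, injury was visually rated against untreated controls from 0 (no effect) to 10 (complete control).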

crabgrass = experiment: Test B pre/postemergence crabgrass; assay type: in vivo, Digitaria sanguinalis
How it was run: as §2

wild oat = experiment: Test B pre/postemergence wild oat; assay type: in vivo, Avena fatua
How it was run: as §2

morningglory = experiment: Test B pre/postemergence morningglory; assay type: in vivo, Ipomoea hederacea
How it was run: as §2

pigweed = experiment: Test B pre/postemergence pigweed; assay type: in vivo, Amaranthus retroflexus
How it was run: as §2

corn = experiment: Test B pre/postemergence corn; assay type: in vivo, Zea mays
How it was run: as §2

duck salad = experiment: Test B flood test duck salad; assay type: in vivo, Heteranthera limosa
How it was run: as §1

rice = experiment: Test B flood test rice; assay type: in vivo, Oryza sativa
How it was run: as §1

velvetleaf = experiment: Test B pre/postemergence velvetleaf; assay type: in vivo, Abutilon theophrasti
How it was run: as §2

cocklebur = experiment: Test B pre/postemergence cocklebur; assay type: in vivo, Xanthium strumarium
How it was run: as §2

rape = experiment: Test B pre/postemergence rape; assay type: in vivo, Brassica napus
How it was run: as §2

soybean = experiment: Test B pre/postemergence soybean; assay type: in vivo, Glycine max
How it was run: as §2

bedstraw = experiment: Test B pre/postemergence bedstraw; assay type: in vivo, Galium aparine; conditions: Postemergence, Rate 125 g/ha; scale 0 to 10, 0 is no effect, 10 is complete control
How it was run: as §2

blackgrass = experiment: Test B pre/postemergence blackgrass; assay type: in vivo, Alopecurus myosuroides
How it was run: as §2

purple nutsedge = experiment: Test B pre/postemergence purple nutsedge; assay type: in vivo, Cyperus rotundus
How it was run: as §2

smallflower flatsedge = experiment: Test B flood test smallflower flatsedge; assay type: in vivo, Cyperus difformis
How it was run: as §1

giant foxtail = experiment: Test B pre/postemergence giant foxtail; assay type: in vivo, Setaria faberii
How it was run: as §2

sugar beet = experiment: Test B pre/postemergence sugar beet; assay type: in vivo, Beta vulgaris
How it was run: as §2

surinam grass = experiment: Test B pre/postemergence surinam grass; assay type: in vivo, Brachiaria decumbens
How it was run: as §2

[1] = Rate 62 g/ha, flood test species, Pre-emergence, visual evaluation after twelve to sixteen days
[2] = Rate 125 g/ha, under heading Pre-emergence, flood test species, visual evaluation after twelve to sixteen days
[3] = Rate 250 g/ha, Pre-emergence (flood test species), scale 0 to 10, 0 is no effect, 10 is complete control
[4] = Rate 500 g/ha, Pre-emergence section of Table B, 0 to 10 scale (0 no effect, 10 complete control)
[5] = Postemergence, Rate 125 g/ha, scale 0 to 10, 0 is no effect, 10 is complete control
[6] = Postemergence, Rate 500 g/ha, scale 0 to 10, 0 is no effect, 10 is complete control
[7] = Preemergence, Rate 62 g/ha, scale of 0 to 10 where 0 is no effect and 10 is complete control
[8] = Preemergence, Rate 125 g/ha, scale 0 to 10, 0 is no effect, 10 is complete control
[9] = Preemergence, Rate 500 g/ha, scale 0 to 10, 0 is no effect, 10 is complete control
[10] = Rate 62 g/ha, Postemergence, scale 0 to 10 (0 no effect, 10 complete control)
[11] = Postemergence, Rate 250 g/ha, scale 0 to 10
[12] = Preemergence, Rate 250 g/ha, scale 0 to 10, 0 is no effect, 10 is complete control

CC(C)N(C(=O)n1oc(=O)n(CC(=O)C2CC2)c1=O)c1ccc(F)cc1F [Compound 490]
10: Crabgrass plant response rating (crabgrass; [9]) | Giant foxtail plant response rating (giant foxtail; [9])
7: Plant response rating, Crabgrass (crabgrass; [6]) | Plant response rating, Wild oats (wild oat; [6]) | Wild oats plant response rating (wild oat; [8]) | Redroot pigweed plant response rating (pigweed; [8]) | Plant response rating, Blackgrass (blackgrass; [7]) | Plant response rating, B. signalgrass (surinam grass; [6])
6: Crabgrass plant response rating (crabgrass; [5]) | Crabgrass plant response rating (crabgrass; [11]) | Plant response rating, Wild oats (wild oat; [7]) | Plant response rating, Soybean (soybean; [6]) | B. signalgrass plant response rating (surinam grass; [12])
8: Plant response rating, Crabgrass (crabgrass; [7]) | Wild oats plant response rating (wild oat; [9]) | Redroot pigweed plant response rating (pigweed; [9]) | Rape plant response rating (rape; [9]) | Blackgrass plant response rating (blackgrass; [8]) | Giant foxtail plant response rating (giant foxtail; [5]) | Plant response rating, Giant foxtail (giant foxtail; [6]) | B. signalgrass plant response rating (surinam grass; [9])
2: Morningglory plant response rating (morningglory; [10]) | Plant response rating, Redroot pigweed (pigweed; [6]) | Blackgrass plant response rating (blackgrass; [10]) | Giant foxtail plant response rating (giant foxtail; [10]) | B. signalgrass plant response rating (surinam grass; [10])
0: Plant response rating, Barnyardgrass (0 to 10 scale, 0 is no effect, 10 is complete control) (bamyardgrass; [1]) | Barnyardgrass plant response rating (0 to 10 scale, 0 is no effect, 10 is complete control) (bamyardgrass; [2]) | Barnyardgrass plant response rating (bamyardgrass; [3]) | Barnyardgrass plant response rating (bamyardgrass; [4]) | Wheat plant response rating (wheat; [5]) | Plant response rating, Wheat (wheat; [6]) | Plant response rating, Wheat (wheat; [7]) | Wheat plant response rating (wheat; [8]) | Wheat plant response rating (wheat; [10]) | Plant response rating, Morningglory (morningglory; [7]) | Morningglory plant response rating (morningglory; [8]) | Morningglory plant response rating (morningglory; [9]) | Redroot pigweed plant response rating (pigweed; [5]) | Redroot pigweed plant response rating (pigweed; [10]) | Corn plant response rating (corn; [5]) | Corn plant response rating (corn; [11]) | Plant response rating, Corn (corn; [6]) | Plant response rating, Corn (corn; [7]) | Corn plant response rating (corn; [8]) | Corn plant response rating (corn; [10]) | Plant response rating, Ducksalad (0 to 10 scale, 0 is no effect, 10 is complete control) (duck salad; [1]) | Ducksalad plant response rating (0 to 10 scale, 0 is no effect, 10 is complete control) (duck salad; [2]) | Ducksalad plant response rating (duck salad; [3]) | Ducksalad plant response rating (duck salad; [4]) | Plant response rating, Rice (0 to 10 scale, 0 is no effect, 10 is complete control) (rice; [1]) | Rice plant response rating (0 to 10 scale, 0 is no effect, 10 is complete control) (rice; [2]) | Rice plant response rating (rice; [3]) | Rice plant response rating (rice; [4]) | Velvetleaf plant response rating (velvetleaf; [5]) | Plant response rating, Velvetleaf (velvetleaf; [7]) | Velvetleaf plant response rating (velvetleaf; [8]) | Velvetleaf plant response rating (velvetleaf; [10]) | Cocklebur plant response rating (cocklebur; [5]) | Cocklebur plant response rating (cocklebur; [11]) | Plant response rating, Cocklebur (cocklebur; [6]) | Cocklebur plant response rating (cocklebur; [8]) | Cocklebur plant response rating (cocklebur; [12]) | Cocklebur plant response rating (cocklebur; [10]) | Rape plant response rating (rape; [5]) | Plant response rating, Rape (rape; [6]) | Plant response rating, Rape (rape; [7]) | Rape plant response rating (rape; [10]) | Plant response rating, Soybean (soybean; [7]) | Soybean plant response rating (soybean; [8]) | Nutsedge plant response rating (purple nutsedge; [5]) | Plant response rating, Nutsedge (purple nutsedge; [6]) | Plant response rating, Nutsedge (purple nutsedge; [7]) | Nutsedge plant response rating (purple nutsedge; [8]) | Nutsedge plant response rating (purple nutsedge; [9]) | Nutsedge plant response rating (purple nutsedge; [10]) | Plant response rating, S. Flatsedge (0 to 10 scale, 0 is no effect, 10 is complete control) (smallflower flatsedge; [1]) | S. Flatsedge plant response rating (0 to 10 scale, 0 is no effect, 10 is complete control) (smallflower flatsedge; [2]) | S. Flatsedge plant response rating (smallflower flatsedge; [3]) | S. Flatsedge plant response rating (smallflower flatsedge; [4]) | Sugarbeets plant response rating (sugar beet; [5]) | Plant response rating, Sugarbeets (sugar beet; [6]) | Plant response rating, Sugarbeets (sugar beet; [7]) | Sugarbeets plant response rating (sugar beet; [8]) | Sugarbeets plant response rating (sugar beet; [10])
4: Wheat plant response rating (wheat; [9]) | Velvetleaf plant response rating (velvetleaf; [9]) | Soybean plant response rating (soybean; [9]) | Soybean plant response rating (soybean; [10]) | Blackgrass plant response rating (blackgrass; [5]) | B. signalgrass plant response rating (surinam grass; [5]) | B. signalgrass plant response rating (surinam grass; Postemergence, Rate 250 g/ha, scale 0 to 10, 0 no effect, 10 complete control)
3: Crabgrass plant response rating (crabgrass; [10]) | Morningglory plant response rating (morningglory; [5]) | Plant response rating, Morningglory (morningglory; [6]) | Bedstraw plant response rating (bedstraw) | Plant response rating, B. signalgrass (surinam grass; [7])
1: Plant response rating, Velvetleaf (velvetleaf; [6]) | Rape plant response rating (rape; [8])
5: Wild oats plant response rating (wild oat; [5]) | Wild oats plant response rating (wild oat; [10]) | Plant response rating, Redroot pigweed (pigweed; [7]) | Corn plant response rating (corn; [9]) | Soybean plant response rating (soybean; [5]) | Plant response rating, Blackgrass (blackgrass; [6]) | Sugarbeets plant response rating (sugar beet; [9]) | B. signalgrass plant response rating (surinam grass; [8])
9: Crabgrass plant response rating (crabgrass; [8]) | Blackgrass plant response rating (blackgrass; [12]) | Blackgrass plant response rating (blackgrass; [9]) | Plant response rating, Giant foxtail (giant foxtail; [7]) | Giant foxtail plant response rating (giant foxtail; [8])
